Results reported in patent US20240158446A1, “CYCLIC COMPOUND HAVING SELECTIVE INHIBITORY ACTION ON KRAS OVER HRAS AND NRAS” (CHUGAI SEIYAKU KABUSHIKI KAISHA, priority 2021, published 2024).
Like-named read-outs stand apart in the source and are kept apart here. Where a SMILES comes first, the peptide text is derived from it. Bridges are numbered along the chain shown (N, C = ends). [ ]: non-standard residue; d: D form. The star is where a group is joined. hPhe(3,5-F2-4-CF3) = N[C@@H](CCc1cc(F)c(C(F)(F)F)c(F)c1)C(=O)O; NPrPhe(4-CF3) = CCCN[C@@H](Cc1ccc(C(F)(F)F)cc1)C(=O)O; NMeGly(cPent) = CN[C@H](C(=O)O)C1CCCC1; NMeD = CN[C@@H](CC(=O)O)C(=O)O; NMeL = CN[C@@H](CC(C)C)C(=O)O; αMeV = CC(C)[C@](C)(N)C(=O)O; Morpholide = C1CN(*)CCO1; Sar = CNCC(=O)O

Experiments:
[1] = molecular target: GDP-bound KRAS wild-type protein (Homo sapiens, UniProt P01116); assay: Binding to KRAS by surface plasmon resonance (SPR), Single Cycle Kinetics; conditions: GDP-bound KRAS wild-type protein, read-out: KRAS KD
GDP-bound KRAS wild-type protein, sequence (P01116 whole entry): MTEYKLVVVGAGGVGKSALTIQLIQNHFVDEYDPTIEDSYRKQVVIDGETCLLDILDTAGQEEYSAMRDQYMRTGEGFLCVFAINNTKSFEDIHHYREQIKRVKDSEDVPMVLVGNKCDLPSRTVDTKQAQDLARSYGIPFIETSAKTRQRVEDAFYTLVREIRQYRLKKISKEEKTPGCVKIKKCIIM

[2] = molecular target: GDP-bound NRAS wild-type protein (Homo sapiens, UniProt P01111); assay: Binding to NRAS by surface plasmon resonance (SPR), Single Cycle Kinetics
GDP-bound NRAS wild-type protein, sequence (P01111 whole entry): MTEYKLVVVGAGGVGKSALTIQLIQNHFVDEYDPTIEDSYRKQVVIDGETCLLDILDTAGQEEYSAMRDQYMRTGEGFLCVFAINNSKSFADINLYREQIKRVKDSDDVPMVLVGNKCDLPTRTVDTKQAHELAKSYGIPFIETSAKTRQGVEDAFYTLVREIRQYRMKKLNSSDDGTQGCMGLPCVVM

[3] = molecular target: GDP-bound HRAS wild-type protein (Homo sapiens, UniProt P01112); assay: Binding to HRAS by surface plasmon resonance (SPR), Single Cycle Kinetics
GDP-bound HRAS wild-type protein, sequence (P01112 whole entry): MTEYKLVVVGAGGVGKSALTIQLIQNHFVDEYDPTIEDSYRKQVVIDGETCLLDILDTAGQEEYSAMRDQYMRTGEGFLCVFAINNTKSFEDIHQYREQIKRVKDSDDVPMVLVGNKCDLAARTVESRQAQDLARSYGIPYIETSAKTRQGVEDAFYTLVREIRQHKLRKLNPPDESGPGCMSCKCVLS

[4] = system: human lung cancer strain NCI-H441;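 also: cell proliferation inhibition after four days measured by CellTiter-Glo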
[5] = SPR, GDP-bound NRAS wild-type protein vs GDP-bound KRAS wild-type protein
[6] = SPR, GDP-bound HRAS wild-type protein vs GDP-bound KRAS wild-type protein
[7] = SPR Single Cycle Kinetics, 1:1 binding model
[8] = SPR, Single Cycle Kinetics, 1:1 binding model
[9] = SPR, GDP-bound NRAS wild-type protein vs GDP-bound KRAS wild-type protein, KD ratio class
[10] = SPR, GDP-bound HRAS wild-type protein vs GDP-bound KRAS wild-type protein, KD ratio class

Row | Kd ([1]; SPR, Single Cycle Kinetics) [nM] | IC50 [4] [nM] | Kd [1, 8] [nM] | Compound | NRAS/KRAS (ratio of KD value for NRAS to KD value for KRAS) [2, 5] | HRAS/KRAS (ratio of KD value for HRAS to KD value for KRAS) [3, 6] | NRAS/KRAS (ratio of KD value for NRAS to KD value for KRAS) [2, 9] | HRAS/KRAS (ratio of KD value for HRAS to KD value for KRAS) [3, 10] | also measured
1 | 0.16 | 26.3 |  | CCO[C@@H]1C[C@H]2C(=O)NC3(CCC3)C(=O)N(C)[C@@H](C3CCCC3)C(=O)N(C)[C@H](C(=O)N3CCOCC3)CC(=O)N(C)[C@@H](CC3CC3)C(=O)N[C@@H]([C@@H](C)CC)C(=O)N(C)CC(=O)N(C)[C@H]3CCCCCN(C3=O)[C@@H](Cc3ccc(F)cc3)C(=O)N(C)CC(=O)N[C@@H](CCc3cc(F)c(C(F)(F)F)c(F)c3)C(=O)N2C1 [PP1178] | B (a compound having 3 or more and less than 10 is denoted as B) | B (a compound having 3 or more and less than 10 is denoted as B) |  |  | 
2 |  | 36.6 |  | CCC(CC)[C@H]1C(=O)N(C)[C@H](C(=O)N(C)C)CC(=O)N(C)[C@@H](COC)C(=O)N[C@@H]([C@@H](C)CC)C(=O)N(C)CC(=O)N(C)[C@H]2C/C=C\CCN(C2=O)[C@@H](Cc2ccc(C(F)(F)F)cc2)C(=O)N(C)CC(=O)N[C@@H](CCc2ccc(Cl)c(Cl)c2)C(=O)N2C[C@H](OC3CCC3)C[C@H]2C(=O)NC2(CC(C)(C)C2)C(=O)N1C [PP2642] |  |  |  |  | Kd [1, 7]: 0.44 nM; NRAS/KRAS (ratio of KD value with respect to GDP-bound NRAS wild-type protein to KD value with respect to KRAS) ([2]; SPR KD ratio NRAS/KRAS, class symbols): AA (a compound having 20 or more is denoted as AA); HRAS/KRAS (ratio of KD value with respect to GDP-bound HRAS wild-type protein to KD value with respect to KRAS) ([3]; SPR KD ratio HRAS/KRAS, class symbols): A (a compound having 10 or more and less than 20 is denoted as A)
3 |  | 38.7 | 0.52 | CCO[C@@H]1C[C@H]2C(=O)NC3(CCC3)C(=O)N(C)[C@@H](C(CC)CC)C(=O)N(C)[C@H](C(=O)N(C)C)CC(=O)N(C)[C@@H](CC3CC3)C(=O)N[C@@H]([C@@H](C)CC)C(=O)N(C)CC(=O)N(C)[C@H]3C/C=C\CCN(C3=O)[C@@H](CC3CCC(F)(F)CC3)C(=O)N(C)CC(=O)N[C@@H](CCc3cc(F)c(C(F)(F)F)c(F)c3)C(=O)N2C1 [PP1429] |  |  | AA (a compound having 20 or more is denoted as AA) | A (a compound having 10 or more and less than 20 is denoted as A) | 
4 |  | 32 | 0.2 | CCO[C@@H]1C[C@H]2C(=O)NC3(CCC3)C(=O)N(C)[C@@H](C3CCCC3)C(=O)N(C)[C@H](C(=O)N(C)C)CC(=O)N(C)[C@@H](CC3CC3)C(=O)N[C@@H]([C@@H](C)CC)C(=O)N(C)CC(=O)N(C)[C@H]3C/C=C\CCN(C3=O)[C@@H](CC3CCCCC3)C(=O)N(C)CC(=O)N[C@@H](CCc3cc(F)c(C(F)(F)F)c(F)c3)C(=O)N2C1 [PP1446] |  |  | A (a compound having 10 or more and less than 20 is denoted as A) | A (a compound having 10 or more and less than 20 is denoted as A) | 
5 |  | 18.2 | 0.19 | CCO[C@@H]1C[C@H]2C(=O)NC3(CCC3)C(=O)N(C)[C@@H](C3CCCC3)C(=O)N(C)[C@H](C(=O)N3CCOCC3)CC(=O)N(C)[C@@H](CC3CCCC3)C(=O)N[C@@H]([C@@H](C)CC)C(=O)N(C)CC(=O)N(C)[C@H]3C/C=C\CCN(C3=O)[C@@H](Cc3ccc(C(F)(F)F)cc3)C(=O)N(C)CC(=O)N[C@@H](CCc3cc(F)c(C(F)(F)F)c(F)c3)C(=O)N2C1 [PP1393] |  |  | A (a compound having 10 or more and less than 20 is denoted as A) | A (a compound having 10 or more and less than 20 is denoted as A) | 
6 |  | 24.6 | 0.15 | CCO[C@@H]1C[C@H]2C(=O)NC3(CCC3)C(=O)N(C)[C@@H](C3CCCC3)C(=O)N(C)[C@H](C(=O)N3CCOCC3)CC(=O)N(C)[C@@H](CC(F)F)C(=O)N[C@@H]([C@@H](C)CC)C(=O)N(C)CC(=O)N(C)[C@H]3C/C=C\CCN(C3=O)[C@@H](Cc3ccc(C(F)(F)F)cc3)C(=O)N(C)CC(=O)N[C@@H](CCc3cc(F)c(C(F)(F)F)c(F)c3)C(=O)N2C1 [PP1285] |  |  | AA (a compound having 20 or more is denoted as AA) | A (a compound having 10 or more and less than 20 is denoted as A) | 
7 |  | 69.5 |  | CCCN1C(=O)CN(C)C(=O)CN(C)C(=O)[C@H]([C@@H](C)CC)NC(=O)[C@H](CC(C)C)N(C)C(=O)C[C@@H](C(=O)N2CCOCC2)N(C)C(=O)[C@H](C2CCCC2)N(C)C(=O)[C@](C)(C(C)C)NC(=O)[C@@H]2CCCN2C(=O)[C@H](CCc2cc(F)c(C(F)(F)F)c(F)c2)NC(=O)CN(C)C(=O)[C@@H]1Cc1ccc(C(F)(F)F)cc1 [PP0756] ([NMeL]I[Sar][Sar][NPrPhe(4-CF3)][Sar][hPhe(3,5-F2-4-CF3)]P[αMeV][NMeGly(cPent)][NMeD]-Morpholide; lactam N-11) |  |  |  |  | Kd [1, 7]: 0.87 nM; NRAS/KRAS (ratio of KD value with respect to NRAS to KD value with respect to KRAS) [2, 5]: B (a compound having 3 or more and less than 10 is denoted as B); HRAS/KRAS (ratio of KD value with respect to HRAS to KD value with respect to KRAS) [3, 6]: B (a compound having 3 or more and less than 10 is denoted as B)
8 |  | 15 | 0.46 | CCO[C@@H]1C[C@H]2C(=O)NC3(CCC3)C(=O)N(C)[C@@H](C3CCCC3)C(=O)N(C)[C@H](C(=O)N(C)C)CC(=O)N(C)[C@@H](CC3CCCC3)C(=O)N[C@@H]([C@@H](C)CC)C(=O)N(C)CC(=O)N(C)[C@H]3C/C=C\CCN(C3=O)[C@@H](Cc3ccc(C)cc3)C(=O)N(C)CC(=O)N[C@@H](CCc3cc(F)c(Cl)c(F)c3)C(=O)N2C1 [PP1486] |  |  | A (a compound having 10 or more and less than 20 is denoted as A) | A (a compound having 10 or more and less than 20 is denoted as A) | 
9 | 0.05 | 1.8 |  | CC[C@H](C)[C@@H]1NC(=O)[C@@H]2CCCCc3ccc(cc3)C[C@@H](C(=O)N(C)CC(=O)N[C@@H](CCc3ccc(C(F)(F)F)c(OC)c3)C(=O)N3C[C@H](OC4CCC4)C[C@H]3C(=O)NC3(CC(C)(C)C3)C(=O)N(C)[C@@H](C3CCCC3)C(=O)N(C)[C@H](C(=O)N(C)CC)CC(=O)N2C)N2CC/C=C\C[C@@H](C2=O)N(C)C(=O)CN(C)C1=O [PP3079] | A (a compound having 10 or more and less than 20 is denoted as A) | B (a compound having 3 or more and less than 10 is denoted as B) |  |  | ratio of the KD value with respect to GDP-bound NRAS wild-type protein to the KD value with respect to KRAS ([2]; SPR, KD(NRAS)/KD(KRAS)): A (a compound having 10 or more and less than 20 is denoted as A); ratio of the KD value with respect to GDP-bound HRAS wild-type protein to the KD value with respect to KRAS ([3]; SPR, KD(HRAS)/KD(KRAS)): B (a compound having 3 or more and less than 10 is denoted as B); IC50 ([4]; read-out: NCI-H441 cell proliferation inhibitory activity, 50% proliferation inhibitory concentration (IC50 value), NCI-H441, four days, CellTiter-Glo): 1.8 nM
10 | 0.12 | 7.8 |  | CC[C@H](C)[C@@H]1NC(=O)[C@H](COC)N(C)C(=O)C[C@@H](C(=O)N(C)C)N(C)C(=O)[C@H](C2CCCC2)N(C)C(=O)C2(CC(C)(C)C2)NC(=O)[C@@H]2C[C@H](C)CN2C(=O)[C@H](CCc2ccc(C(F)(F)F)c(OC)c2)NC(=O)CN(C)C(=O)[C@H](Cc2ccc(C)cc2)N2CC/C=C\C[C@@H](C2=O)N(C)C(=O)CN(C)C1=O [PP2385] | A (a compound having 10 or more and less than 20 is denoted as A) | B (a compound having 3 or more and less than 10 is denoted as B) |  |  | 
